Laboratory results taken from ChEMBL document CHEMBL5696442, “Discovery of type II inhibitors of TGFβ-activated kinase 1 (TAK1) and mitogen-activated protein kinase kinase kinase kinase 2 (MAP4K2)” (J Med Chem, 2015).

Tests used:
[1] = molecular target: T1, Serine/threonine-protein kinase TAO2 (Homo sapiens) (UniProt Q9UL54); experiment: Inhibition of TAO2 Lys2 labeling site in human Huh-7 cell lysate at 1 uM by KiNativ Profiling analysis relative to control; type: subcellular
T1 sequence (whole entry): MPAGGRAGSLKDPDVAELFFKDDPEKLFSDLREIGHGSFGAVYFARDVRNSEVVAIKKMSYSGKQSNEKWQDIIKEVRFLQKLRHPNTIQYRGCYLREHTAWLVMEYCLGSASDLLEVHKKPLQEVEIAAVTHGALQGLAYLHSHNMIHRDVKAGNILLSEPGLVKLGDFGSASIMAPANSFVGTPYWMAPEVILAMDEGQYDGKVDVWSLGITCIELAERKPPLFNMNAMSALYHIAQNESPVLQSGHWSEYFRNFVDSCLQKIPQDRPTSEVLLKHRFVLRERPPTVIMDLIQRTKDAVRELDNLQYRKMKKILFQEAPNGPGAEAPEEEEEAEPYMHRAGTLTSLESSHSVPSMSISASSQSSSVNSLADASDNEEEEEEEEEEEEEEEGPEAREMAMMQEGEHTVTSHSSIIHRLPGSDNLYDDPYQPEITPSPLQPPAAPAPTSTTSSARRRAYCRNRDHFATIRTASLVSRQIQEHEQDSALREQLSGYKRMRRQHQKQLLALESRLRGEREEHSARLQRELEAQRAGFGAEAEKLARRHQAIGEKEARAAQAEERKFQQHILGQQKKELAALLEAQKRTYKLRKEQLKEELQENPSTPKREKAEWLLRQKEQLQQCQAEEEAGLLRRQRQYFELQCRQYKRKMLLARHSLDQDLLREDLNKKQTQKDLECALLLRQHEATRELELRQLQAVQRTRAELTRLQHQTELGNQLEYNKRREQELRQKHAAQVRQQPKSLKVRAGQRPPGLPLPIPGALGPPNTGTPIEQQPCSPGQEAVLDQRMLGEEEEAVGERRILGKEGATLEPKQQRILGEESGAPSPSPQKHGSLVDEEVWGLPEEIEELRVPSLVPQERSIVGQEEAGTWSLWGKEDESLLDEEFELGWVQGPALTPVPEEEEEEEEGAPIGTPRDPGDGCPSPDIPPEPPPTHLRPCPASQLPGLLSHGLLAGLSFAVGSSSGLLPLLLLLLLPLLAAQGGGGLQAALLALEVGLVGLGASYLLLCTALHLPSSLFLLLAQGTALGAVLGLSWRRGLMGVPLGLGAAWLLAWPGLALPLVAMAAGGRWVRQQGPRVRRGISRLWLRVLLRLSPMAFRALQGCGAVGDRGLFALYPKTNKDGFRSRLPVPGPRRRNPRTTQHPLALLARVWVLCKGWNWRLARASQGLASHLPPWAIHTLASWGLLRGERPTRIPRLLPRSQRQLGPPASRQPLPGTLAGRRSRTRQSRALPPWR

[2] = molecular target: T2, Dual specificity mitogen-activated protein kinase kinase 4 (Homo sapiens) (UniProt P45985); experiment: Inhibition of MAP2K4 ACT labeling site in human Huh-7 cell lysate at 1 uM by KiNativ Profiling analysis relative to control; type: subcellular
T2 sequence (whole entry): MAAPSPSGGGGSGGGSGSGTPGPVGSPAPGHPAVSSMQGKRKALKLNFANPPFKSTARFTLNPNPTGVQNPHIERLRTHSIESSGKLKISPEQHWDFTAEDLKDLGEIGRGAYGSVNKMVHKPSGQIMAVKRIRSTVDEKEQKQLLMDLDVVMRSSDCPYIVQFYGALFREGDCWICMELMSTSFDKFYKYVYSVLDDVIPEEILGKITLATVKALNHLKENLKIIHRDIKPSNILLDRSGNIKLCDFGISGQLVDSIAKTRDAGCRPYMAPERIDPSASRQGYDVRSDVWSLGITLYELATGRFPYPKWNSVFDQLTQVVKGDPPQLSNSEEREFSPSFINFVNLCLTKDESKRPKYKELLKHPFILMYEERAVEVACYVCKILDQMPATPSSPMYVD

[3] = molecular target: Mitogen-activated protein kinase kinase kinase 11 (Homo sapiens) (UniProt Q16584); experiment: Inhibition of MLK3 Lys2 labeling site in human Huh-7 cells at 1 uM by KiNativ Profiling analysis relative to control; type: cell-based
[4] = molecular target: Casein kinase I isoform delta (Homo sapiens) (UniProt P48730); experiment: Inhibition of CK1 delta K2 labeling site in human Huh-7 cells at 1 uM by KiNativ Profiling analysis relative to control; type: cell-based
[5] = molecular target: Cyclin-dependent kinase 5 (Homo sapiens) (UniProt Q00535); experiment: Inhibition of CDK5 Lys1 labeling site in human A-375 cells at 0.05 uM by KiNativ Profiling analysis relative to control; type: cell-based
[6] = molecular target: Cyclin-dependent kinase 18 (Homo sapiens) (UniProt Q07002); experiment: Inhibition of PCTK3 (unknown origin) at 10 uM by Ambit Kinomescan binding assay relative to control
[7] = molecular target: T3, Mitogen-activated protein kinase 13 (Homo sapiens) (UniProt O15264); experiment: Inhibition of p38delta (unknown origin) at 10 uM by Ambit Kinomescan binding assay relative to control; values are per cent of control
T3 sequence (whole entry): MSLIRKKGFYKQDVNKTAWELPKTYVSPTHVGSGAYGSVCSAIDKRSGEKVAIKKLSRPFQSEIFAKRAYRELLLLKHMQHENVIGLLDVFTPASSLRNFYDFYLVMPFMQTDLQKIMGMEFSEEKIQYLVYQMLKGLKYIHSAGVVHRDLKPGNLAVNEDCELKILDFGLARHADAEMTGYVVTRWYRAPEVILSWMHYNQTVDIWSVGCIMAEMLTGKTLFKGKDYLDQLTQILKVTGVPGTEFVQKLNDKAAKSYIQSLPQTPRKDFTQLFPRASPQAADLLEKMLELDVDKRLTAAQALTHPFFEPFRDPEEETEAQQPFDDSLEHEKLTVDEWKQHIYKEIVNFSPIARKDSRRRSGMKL

[8] = molecular target: Tyrosine-protein kinase CSK (Homo sapiens, UniProt P41240); experiment: Inhibition of CSK ACT labeling site harbouring VSDFGLTKEASSTQDTGKLPVK in human Huh-7 cells at 1 uM by KiNativ Profiling analysis relative to control; type: cell-based
[9] = molecular target: Mitogen-activated protein kinase kinase kinase 1 (Homo sapiens) (UniProt Q13233); experiment: Inhibition of MAP3K1 (unknown origin) at 1 uM by Ambit Kinomescan binding assay relative to control; values are per cent of control
[10] = system: Receptor-type tyrosine-protein kinase FLT3 (Homo sapiens), P36888 [UNDEFINED MUTATION]; experiment: Inhibition of FLT3 ITD mutant (unknown origin) at 1 uM by Ambit Kinomescan binding assay relative to control; values are per cent of control
[11] = system: Epidermal growth factor receptor (Homo sapiens), P00533 [G719S]; experiment: Inhibition of EGFR G719S mutant (unknown origin) at 1 uM by Ambit Kinomescan binding assay relative to control
Sequence of Epidermal growth factor receptor (Homo sapiens), P00533 [G719S] (P00533 whole entry G719S): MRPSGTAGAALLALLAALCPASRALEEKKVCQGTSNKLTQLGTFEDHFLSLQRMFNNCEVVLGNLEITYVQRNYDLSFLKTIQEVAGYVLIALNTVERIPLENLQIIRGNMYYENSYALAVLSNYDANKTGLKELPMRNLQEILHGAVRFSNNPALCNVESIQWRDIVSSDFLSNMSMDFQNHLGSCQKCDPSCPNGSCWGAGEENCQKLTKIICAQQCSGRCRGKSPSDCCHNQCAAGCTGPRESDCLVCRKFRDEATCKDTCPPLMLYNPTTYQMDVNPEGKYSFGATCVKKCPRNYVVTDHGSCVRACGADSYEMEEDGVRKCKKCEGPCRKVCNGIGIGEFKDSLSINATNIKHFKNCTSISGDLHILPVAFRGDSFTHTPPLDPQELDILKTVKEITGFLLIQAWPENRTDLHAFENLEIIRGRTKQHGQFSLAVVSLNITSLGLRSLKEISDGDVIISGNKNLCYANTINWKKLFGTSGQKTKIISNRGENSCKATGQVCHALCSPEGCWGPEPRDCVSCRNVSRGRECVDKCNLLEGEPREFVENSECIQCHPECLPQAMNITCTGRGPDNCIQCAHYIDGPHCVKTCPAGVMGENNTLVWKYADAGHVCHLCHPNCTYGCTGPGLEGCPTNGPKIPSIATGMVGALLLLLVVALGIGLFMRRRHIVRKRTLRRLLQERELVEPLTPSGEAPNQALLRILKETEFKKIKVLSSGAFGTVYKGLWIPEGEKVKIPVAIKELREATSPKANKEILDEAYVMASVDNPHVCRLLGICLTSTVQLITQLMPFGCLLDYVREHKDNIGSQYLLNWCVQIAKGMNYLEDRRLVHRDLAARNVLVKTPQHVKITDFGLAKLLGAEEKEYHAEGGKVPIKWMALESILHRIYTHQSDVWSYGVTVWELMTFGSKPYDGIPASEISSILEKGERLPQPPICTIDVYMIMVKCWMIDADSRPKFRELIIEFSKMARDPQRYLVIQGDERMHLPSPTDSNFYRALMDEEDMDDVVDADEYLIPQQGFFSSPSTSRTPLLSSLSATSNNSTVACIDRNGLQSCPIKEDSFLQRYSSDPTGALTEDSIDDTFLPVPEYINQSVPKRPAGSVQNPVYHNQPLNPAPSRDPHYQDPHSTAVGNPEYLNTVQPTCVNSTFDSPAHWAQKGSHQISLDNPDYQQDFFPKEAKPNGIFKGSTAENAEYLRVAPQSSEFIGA

Sequence of Casein kinase I isoform delta (Homo sapiens) (P48730 whole entry, looked up, canonical isoform): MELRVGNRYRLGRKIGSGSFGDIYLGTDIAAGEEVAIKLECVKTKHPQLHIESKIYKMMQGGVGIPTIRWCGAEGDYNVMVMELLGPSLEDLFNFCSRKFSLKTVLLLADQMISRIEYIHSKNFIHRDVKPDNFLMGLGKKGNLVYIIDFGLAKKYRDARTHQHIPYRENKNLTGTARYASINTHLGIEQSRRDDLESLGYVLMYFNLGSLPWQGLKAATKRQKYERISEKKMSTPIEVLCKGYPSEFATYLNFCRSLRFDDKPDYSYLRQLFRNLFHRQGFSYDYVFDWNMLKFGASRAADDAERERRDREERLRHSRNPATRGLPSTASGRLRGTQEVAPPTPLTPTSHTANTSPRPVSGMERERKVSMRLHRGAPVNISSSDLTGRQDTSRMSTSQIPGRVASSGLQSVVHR
Sequence of Tyrosine-protein kinase CSK (P41240 2-450 limits assumed): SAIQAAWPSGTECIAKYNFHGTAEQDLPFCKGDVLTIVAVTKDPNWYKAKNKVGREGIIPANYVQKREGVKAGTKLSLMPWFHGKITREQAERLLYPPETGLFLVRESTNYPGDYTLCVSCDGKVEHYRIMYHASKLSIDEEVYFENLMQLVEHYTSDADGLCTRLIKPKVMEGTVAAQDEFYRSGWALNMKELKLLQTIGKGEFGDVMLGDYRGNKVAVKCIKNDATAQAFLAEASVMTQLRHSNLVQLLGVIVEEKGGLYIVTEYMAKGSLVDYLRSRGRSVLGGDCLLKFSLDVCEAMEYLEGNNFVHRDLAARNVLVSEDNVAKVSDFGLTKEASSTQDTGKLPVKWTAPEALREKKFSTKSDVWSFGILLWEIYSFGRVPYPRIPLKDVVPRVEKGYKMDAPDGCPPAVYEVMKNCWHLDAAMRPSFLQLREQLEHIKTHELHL
Sequence of Cyclin-dependent kinase 5 (Homo sapiens) (Q00535 whole entry, looked up): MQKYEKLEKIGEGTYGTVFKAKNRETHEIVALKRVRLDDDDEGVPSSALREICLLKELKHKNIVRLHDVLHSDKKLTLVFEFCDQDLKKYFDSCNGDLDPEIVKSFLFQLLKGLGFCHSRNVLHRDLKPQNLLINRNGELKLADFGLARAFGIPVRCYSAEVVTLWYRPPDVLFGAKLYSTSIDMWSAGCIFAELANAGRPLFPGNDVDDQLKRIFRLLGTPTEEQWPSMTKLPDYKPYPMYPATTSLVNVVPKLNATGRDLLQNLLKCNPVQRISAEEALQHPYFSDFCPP
Sequence of Receptor-type tyrosine-protein kinase FLT3 (Homo sapiens), P36888 [UNDEFINED MUTATION] (P36888 whole entry, looked up, stated change not applied): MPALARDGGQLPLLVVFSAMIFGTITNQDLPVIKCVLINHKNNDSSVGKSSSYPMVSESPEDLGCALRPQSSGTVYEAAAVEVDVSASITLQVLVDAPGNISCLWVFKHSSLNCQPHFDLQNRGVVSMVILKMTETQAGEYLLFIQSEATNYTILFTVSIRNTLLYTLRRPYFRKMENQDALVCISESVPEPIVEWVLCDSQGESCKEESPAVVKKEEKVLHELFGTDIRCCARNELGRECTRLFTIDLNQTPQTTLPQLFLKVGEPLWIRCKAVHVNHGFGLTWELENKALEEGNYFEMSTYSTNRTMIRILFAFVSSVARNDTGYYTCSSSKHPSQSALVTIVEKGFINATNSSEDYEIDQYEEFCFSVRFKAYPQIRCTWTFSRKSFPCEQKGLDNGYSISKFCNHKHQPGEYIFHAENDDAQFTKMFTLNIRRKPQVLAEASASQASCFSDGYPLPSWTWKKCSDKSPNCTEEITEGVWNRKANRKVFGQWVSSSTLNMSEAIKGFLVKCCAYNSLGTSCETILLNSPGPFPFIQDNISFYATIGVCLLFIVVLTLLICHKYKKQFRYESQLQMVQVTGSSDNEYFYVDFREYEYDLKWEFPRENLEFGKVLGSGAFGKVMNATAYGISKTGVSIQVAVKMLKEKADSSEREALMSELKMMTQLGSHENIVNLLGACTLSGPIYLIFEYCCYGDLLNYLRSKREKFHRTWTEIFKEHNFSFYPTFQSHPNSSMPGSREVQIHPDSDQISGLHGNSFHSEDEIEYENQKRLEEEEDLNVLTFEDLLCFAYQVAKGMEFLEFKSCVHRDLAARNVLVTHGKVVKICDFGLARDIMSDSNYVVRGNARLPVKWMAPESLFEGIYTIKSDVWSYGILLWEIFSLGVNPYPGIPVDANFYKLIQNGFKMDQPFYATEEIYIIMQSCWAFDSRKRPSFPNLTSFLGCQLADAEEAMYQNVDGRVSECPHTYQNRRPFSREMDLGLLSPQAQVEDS
Sequence of Mitogen-activated protein kinase kinase kinase 1 (Homo sapiens) (Q13233 whole entry): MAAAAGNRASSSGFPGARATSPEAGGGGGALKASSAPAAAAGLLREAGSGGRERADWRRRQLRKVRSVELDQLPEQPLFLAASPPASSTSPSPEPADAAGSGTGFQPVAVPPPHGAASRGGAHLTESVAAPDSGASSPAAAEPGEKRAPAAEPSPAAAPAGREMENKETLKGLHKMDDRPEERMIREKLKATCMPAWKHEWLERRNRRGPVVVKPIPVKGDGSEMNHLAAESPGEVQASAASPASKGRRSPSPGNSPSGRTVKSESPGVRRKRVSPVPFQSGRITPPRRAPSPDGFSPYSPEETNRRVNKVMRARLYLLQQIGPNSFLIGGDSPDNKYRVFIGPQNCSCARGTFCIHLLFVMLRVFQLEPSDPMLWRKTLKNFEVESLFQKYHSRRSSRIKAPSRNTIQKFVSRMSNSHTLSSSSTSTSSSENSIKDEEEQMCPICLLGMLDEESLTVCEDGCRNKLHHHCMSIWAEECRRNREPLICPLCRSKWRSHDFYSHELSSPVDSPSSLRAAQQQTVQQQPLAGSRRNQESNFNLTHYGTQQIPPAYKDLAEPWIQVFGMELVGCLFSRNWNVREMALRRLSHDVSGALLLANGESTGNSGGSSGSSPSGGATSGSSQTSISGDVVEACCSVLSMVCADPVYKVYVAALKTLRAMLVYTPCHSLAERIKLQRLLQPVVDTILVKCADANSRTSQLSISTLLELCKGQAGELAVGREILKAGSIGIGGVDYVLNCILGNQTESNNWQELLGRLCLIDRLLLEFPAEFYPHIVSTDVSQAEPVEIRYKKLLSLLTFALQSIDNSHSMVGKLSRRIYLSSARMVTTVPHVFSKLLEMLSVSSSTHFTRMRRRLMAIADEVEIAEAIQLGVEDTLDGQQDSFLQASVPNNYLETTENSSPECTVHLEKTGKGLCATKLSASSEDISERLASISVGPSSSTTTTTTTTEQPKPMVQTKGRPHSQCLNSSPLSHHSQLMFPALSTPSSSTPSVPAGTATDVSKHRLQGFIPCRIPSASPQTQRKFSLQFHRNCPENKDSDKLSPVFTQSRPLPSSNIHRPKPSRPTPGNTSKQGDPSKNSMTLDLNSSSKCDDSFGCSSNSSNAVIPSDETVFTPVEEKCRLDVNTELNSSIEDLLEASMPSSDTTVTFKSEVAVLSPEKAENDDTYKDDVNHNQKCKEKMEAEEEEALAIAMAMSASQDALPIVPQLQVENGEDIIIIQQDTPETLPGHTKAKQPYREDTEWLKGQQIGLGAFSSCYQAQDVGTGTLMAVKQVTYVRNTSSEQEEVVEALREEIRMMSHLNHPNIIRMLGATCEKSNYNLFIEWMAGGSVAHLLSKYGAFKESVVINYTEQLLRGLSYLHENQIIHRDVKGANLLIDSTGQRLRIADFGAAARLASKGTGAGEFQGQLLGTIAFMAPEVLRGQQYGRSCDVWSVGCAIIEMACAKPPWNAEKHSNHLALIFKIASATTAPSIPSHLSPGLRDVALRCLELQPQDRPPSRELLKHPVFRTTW

Work on `CNc1cc(Oc2cc(C(=O)Nc3cc(N4CCN(C)CC4)cc(C(F)(F)F)c3)ccc2C)ncn1` yielded an inhibition [1] of 7.5%, an inhibition [2] of -2.8% and an inhibition [3] of 15%.

`CCN1CCN(Cc2ccc(NC(=O)c3ccc(C)c(Oc4ccnc5[nH]ccc45)c3)cc2C(F)(F)F)CC1` gave an inhibition [4] of 18.5%, an inhibition [5] of 16.5% and an inhibition [6] of 1.8%. It also gave a percent of control [7] of 0.55% and an inhibition [8] of 2.4%.

Molecule `CCN1CCN(Cc2ccc(NC(=O)c3ccc(C)c(/C=C/c4cnc5[nH]ccc5c4OC)c3)cc2C(F)(F)F)CC1` has a residual activity [9] of 100%, a residual activity [10] of 1.4% and an inhibition [11] of 0.9%.
